In PubChem BioAssay AID814 (SRMLSC, 2007):
Activity calls are given as the source filed them. How the calls were made is not given here.

System: cell imaging, HER kinase expression, mean fluorescence
Assay: HER kinase expression suppression, imaging readout – mean fluorescence, total cell number, dose response (AID 814)
[1] = measured here: total cell number (cytotoxicity)

SMILES | EC50 | EC50 [1]
CCN1/C(=C/C(=O)c2ccco2)Sc2ccccc21 | 8.32 µM | > 10 µM
COC(=O)c1sccc1NC(=O)c1ccc(Cl)s1 | 6.49 µM | > 10 µM
O=S1(=O)C=C(Sc2nc3ccccc3s2)c2ccccc21 | 5.41 µM | 7.61 µM
CS(=O)(=O)c1nc(-c2ccco2)cc(C(F)(F)F)n1 | > 10 µM (inactive) | > 10 µM
CC(=O)c1sc2nc(-c3cccs3)cc(C(F)(F)F)c2c1N | > 10 µM (inactive) | > 10 µM
CCCn1c(NC(=O)c2ccco2)nc2ccccc21 | 9.35 µM | > 10 µM
Cc1ccc(-c2csc3ncnc(Sc4nnc(CN5CCCCCC5=O)o4)c23)cc1 | 8.06 µM | > 10 µM
CCCCS(=O)(=O)/C=C\C=C/S(=O)(=O)CCCC | 8.14 µM | 7.52 µM
O=S(=O)(CC(CN1CCCC1)N1CCCC1)c1ccc2ccccc2c1 (stereo not drawn) | 7.75 µM | > 10 µM
CN(C)CC(C(=O)c1ccccc1)c1ccccc1 (stereo not drawn) | 6.95 µM | > 10 µM
Cn1c(C(C#N)C(=O)c2ccco2)nc2ccccc21 (stereo not drawn) | 8.31 µM | > 10 µM
Cc1nn2c(-c3ccco3)nnc2c2ccccc12 | 8.3 µM | > 10 µM
O=S(=O)(C/C(=C/CO)S(=O)(=O)c1ccccc1)c1ccccc1 | > 10 µM (inactive) | > 10 µM
CS(=O)(=O)c1nc(-c2ccccc2)cc(C(F)(F)F)n1 | > 10 µM (inactive) | > 10 µM
O=S1(=O)C=C(Sc2nnc(-c3ccccc3)o2)c2ccccc21 | 8.72 µM | > 10 µM
Nc1nnnn1/N=C/C(Br)=C/c1ccccc1 | 4.69 µM | > 10 µM
Cc1nc(NC(=O)c2ccco2)sc1C(=O)Nc1ccc(Br)cc1 | 8.41 µM | > 10 µM
Cc1nc2nc(-c3ccco3)nn2c(C)c1Cl | 9.52 µM | > 10 µM
CS(=O)(=O)c1nc(-c2cccs2)cc(C(F)(F)F)n1 | > 10 µM (inactive) | > 10 µM
O=C(CSc1nc2cc(Cl)ccc2s1)c1ccco1 | > 10 µM (inactive) | > 10 µM
CSC1=N/C(=C\C=C\c2cccs2)C(=O)S1 | > 10 µM (inactive) | > 10 µM
Cc1ccc(CNC(=O)c2cc3c(-c4ccc(Cl)cc4)nn(C)c3s2)o1 | > 10 µM (inactive) | > 10 µM
COc1ccc(C(=O)C(CN2CCCC2)c2ccccc2)cc1 (stereo not drawn) | 8.27 µM | > 10 µM
O=S1(=O)C=C(Sc2nc3cc(Cl)ccc3o2)c2ccccc21 | > 10 µM (inactive) | > 10 µM
